US20110236312A1, “NUCLEOSIDE ANALOGUES USEFUL AS POSITRON EMISSION TOMOGRAPHY (PET) IMAGING AGENTS” (IMPERIAL INNOVATIONS LIMITED, priority 2008, published 2011)

Tests used:
HCT116 tumour = experiment: Dynamic PET imaging of tumour bearing mice; type: in vivo
Protocol: All animal experiments were done by licensed investigators in accordance with the United Kingdom Home Office Guidance on the Operation of the Animal (Scientific Procedures) Act 1986 and within guidelines set out by the United Kingdom Coordinating Committee for Cancer Research's Ad hoc Committee on Welfare of Animals in Experimental Neoplasia. Both tumour-bearing (Balb/c nude mice) and non-tumour bearing (Balb/c mice) animals were used. Human colon, HCT116, tumours were grown in Balb/c nu/nu mice (Harlan) as previously reported. Tumour dimensions were measured continuously using a caliper and tumour volumes were calculated by the equation: volume=(π/6)×a×b×c, where a, b, and c represent three orthogonal axes of the tumour. Mice were used when their tumours reached approximately 100 mm^3
Dynamic [^18F]FTT imaging scans were carried out on a dedicated small animal PET scanner, Siemens Inveon PET module, Siemens Molecular Imaging Inc., Knoxville, USA). The features of this instrument have been described previously. For scanning the tail veins of vehicle- or drug-treated mice were cannulated after induction of anaesthesia (isofluorane/O2/N2O). […] The count densities were averaged for all ROIs at each of the 19 time points to obtain a time versus radioactivity curve (TAC). […]

HCT116 cells = experiment: Acid insoluble fraction measurements (radiotracer incorporation into DNA); type: cell-based; conditions: HCT116 human colon cancer cells in culture
Protocol: Acid extraction was performed to separate radioactivity associated with small molecules, RNA, and proteins from that of DNA. HCT116 cells were cultured in triplicate in 100 mm dishes and the cells were used for DNA extraction at 24 hr. Briefly 5 ml of the assay medium containing 50 μCi of tracer was added to each dish and the dishes incubated at 37° C. for 60 min. After incubation, the medium was removed, and cells were washed twice with ice-cold phosphate-buffered saline (PBS) and 100 μl aliquots of the washings were placed in counting tubes for counting. After washing, the cells were harvested by scraping, collected into counting tubes and then centrifuged at 1200 g at 4° C. for 10 minutes. The cells were homogenized in 1 mL of ice-cold 10% perchloric acid ([…] and centrifuged. The acid-soluble fraction (supernatant) was removed and 100 μl aliquots were counted in a gamma counter. The radioactivity in the acid-insoluble precipitate (largely DNA) was counted separately.

[1] = Radio-HPLC metabolite analysis; type: in vivo; conditions: HCT116 tumour bearing mice, i.v., 30 min post injection, plasma, liver, kidney, urine, FIG. 5
Protocol: [^18F]FTT was produced using the method described above. HCT116 tumour bearing mice were injected intravenously via the lateral tail vein with [^18F]FTT (3.7 MBq) and after 30 min post injection were sacrificed by exsanguination via cardiac puncture under isofluorane anesthesia and then tissue removed. Samples were then snap frozen using dry ice and stored until use. To plasma (0.2 ml) was added ice-cold acetonitrile (1.5 ml) and the sample centrifuged (3 min, 4° C., 15493×g). The supernatant was then decanted and evaporated to dryness using a rotary evaporator (bath temperature 40° C.). The sample was then redissolved in 10% ethanol in PBS (1.1 ml) and filtered through a 0.22 μm filter and then injected. Tumour, liver and kidney samples were homogenised in ice-cold acetonitile (1.5 ml) using an IKA Turrax homogeniser and then processed as for plasma samples. Urine samples were diluted with 10% ethanol in PBS (1.1 ml) and filtered through a 0.22 μm filter and then injected.
HPLC conditions: Agilent 1100 series HPLC system (Agilent Technologies, Stockport, UK) equipped with a γ-RAM Model 3 gamma-detector (IN/US Systems Inc., Florida, USA) and the Laura 3 software (LabLogic, Sheffield, UK). […]

tissue pharmacokinetics (time versus radioactivity curves) (HCT116 tumour; 60 min dynamic scan, FIG. 4): simple tissue pharmacokinetics | metabolic stability [1]: metabolically stable in mice
SMILES: Cc1cn([C@H]2C[C@H](O)[C@@H](CO)S2)c(=O)n(Cc2cn(CC[18F])nn2)c1=O [[^18F]FTT, [^18F]N^3-((1-(2-Fluoroethyl)-1H-[1,2,3]-triazol-4-yl)methyl)-4′-thio-β-thymidine]
localisation on PET images (HCT116 tumour; i.v. via tail vein, FIG. 3): localisation in tumour, kidney, liver and the early part of the small intestines | incorporation into tumour cells in culture (HCT116 cells): readily incorporated
